From patent publication US20150252022A1, “RETINOIC ACID RECEPTOR-RELATED ORPHAN RECEPTOR MODULATORS AND USES THEREOF” (INNOV17 LLC, priority 2014, published 2015)

Tests used:
Type in all cases: cell-based
Details in all cases: 72 h; human CD4+ T cells under TH17-polarizing conditions, 3 days, supernatant ELISA
IL-17A = assay: Human TH17 Cytokine Inhibition as measured by ELISA (IL-17A)
Experimental: (§1) Peripheral blood mononuclear cells (PBMCs) were sourced from freshly prepared leukocyte enriched plasma (buffy coat) from healthy donors (New York Blood Center). PBMCs were isolated by density gradient centrifugation using Ficoll-Paque™ PLUS (GE Healthcare). Human CD4+ T cells were seeded into 96-well plates (5×10^4 cells/well) and activated with plate-bound anti-human (h)-CD3 antibody and soluble h-aCD28 (both at 1 ug/ml; eBioscience) and differentiated into TH17 cells with 20 ng/mL h-IL-6, 5 ng/mL h-TGF-β1, 10 ng/mL h-IL-23 (eBioscience) and 10 ng/mL IL-1β (Miltenyi Biotec) in serum-free TexMACS Medium (Miltenyi Biotec) supplemented with 1% Penicillin/Streptomycin (Lonza) for 3 days. CD4+ T cells propagated under TH17-polarizing conditions were cultured in the presence or absence of various concentrations of compounds with a final concentration of 0.1% DMSO. Supernatants were collected and stored at −20° C. until assayed for IL-17A, IL-17F and IL-21 levels by “Ready-Set-Go” ELISA kits (eBioscience) as per manufacturer's instructions. Endpoint absorbance was read at 450 nm using a microplate reader (Perkin Elmer).

IL-17F = assay: Human TH17 Cytokine Inhibition as measured by ELISA (IL-17F)
Experimental: as §1

IL-21 = assay: Human TH17 Cytokine Inhibition as measured by ELISA (IL-21)
Experimental: as §1

Compound | IC50 (IL-17A) | IC50 (IL-17F) | IC50 (IL-21)
CC(C)C(=O)N1CCC(CN2CCc3cc(-c4cn[nH]c4)ccc32)CC1 [Example 45, 1-(4-((5-(1H-pyrazol-4-yl)indolin-1-yl)methyl)piperidin-1-yl)-2-methylpropan-1-one] | > 10 µM | > 10 µM | > 10 µM
CC(C)CC(=O)N1CCC(CN2CCc3cc(-c4cn[nH]c4)ccc32)C1 (stereo not drawn) [Example 14, 1-(3-((5-(1H-pyrazol-4-yl)indolin-1-yl)methyl)pyrrolidin-1-yl)-3-methylbutan-1-one] | < 10 µM | < 10 µM | > 10 µM
O=C(CCc1ccccc1)N1CCC(Cn2ccc3cc(-c4cn[nH]c4)ccc32)CC1 [Example 79, 1-(4-((5-(1H-pyrazol-4-yl)-1H-indol-1-yl)methyl)piperidin-1-yl)-3-phenylpropan-1-one] | < 10 µM | < 10 µM | < 10 µM
O=C(Cc1ccccc1)N1CCC(Cn2ccc3cc(-c4cn[nH]c4)ccc32)CC1 [Example 88, 1-(4-((5-(1H-pyrazol-4-yl)-1H-indol-1-yl)methyl)piperidin-1-yl)-2-phenylethanone] | < 10 µM | < 10 µM | < 10 µM
O=C(CCc1ccccc1)N1CCCC(CN2CCc3cc(-c4cn[nH]c4)ccc32)CC1 (stereo not drawn) [Example 56, 1-(4-((5-(1H-pyrazol-4-yl)indolin-1-yl)methyl)azepan-1-yl)-3-phenylpropan-1-one] | < 10 µM | < 10 µM | < 10 µM

Further lines, results first:

IC50 (IL-17A) | IC50 (IL-17F) | IC50 (IL-21) | Compound
< 10 µM | < 10 µM | < 10 µM | O=C(CCc1ccccc1)N1CCC(Cn2ccc3cc(-c4cnccn4)ccc32)CC1 [Example 121]
< 10 µM | < 10 µM | > 10 µM | O=C(Cc1ccccc1)N1CCC(CN2CCCc3cc(-c4cn[nH]c4)ccc32)CC1 [Example 102, 1-(4-((6-(1H-pyrazol-4-yl)-3,4-dihydroquinolin-1(2H)-yl)methyl)piperidin-1-yl)-2-phenylethanone]
< 10 µM | < 10 µM | < 10 µM | O=C(CCc1ccccc1)N1CCC(Cn2ccc3cc(-c4cncs4)ccc32)CC1 [Example 124]
< 10 µM | < 10 µM | < 10 µM | Cn1cc(-c2ccc3c(ccn3CC3CCN(C(=O)CCc4ccccc4)CC3)c2)cn1 [Example 125]
